Laboratory results taken from US8324172B2, “G protein coupled receptor agonists and antagonists and methods of activating and inhibiting G protein coupled receptors using the same” (Tufts Medical Center, Inc., priority 2000, dated 2012).
Positions count from the first letter of the chain named. Entries after “also recorded” stand apart in the source; their conditions may differ. Where a SMILES comes first, the peptide text is derived from it. Where no end group is shown, it is not given here. The star is where a group is joined. Palmitoyl = CCCCCCCCCCCCCCCC(=O)*

Experiments:
[1] = tested on: platelets; test: Platelet intracellular Ca2+, agonist activity of peptides
[2] = tested on: human platelets
[3] = target: T1, PAR1 (Homo sapiens, UniProt P25116); test: InsP formation (PLC-β) in Rat1 fibroblasts expressing human PAR1; format: cell-based
T1 construct: expressed in transfected cells
T1 sequence (P25116 22-425): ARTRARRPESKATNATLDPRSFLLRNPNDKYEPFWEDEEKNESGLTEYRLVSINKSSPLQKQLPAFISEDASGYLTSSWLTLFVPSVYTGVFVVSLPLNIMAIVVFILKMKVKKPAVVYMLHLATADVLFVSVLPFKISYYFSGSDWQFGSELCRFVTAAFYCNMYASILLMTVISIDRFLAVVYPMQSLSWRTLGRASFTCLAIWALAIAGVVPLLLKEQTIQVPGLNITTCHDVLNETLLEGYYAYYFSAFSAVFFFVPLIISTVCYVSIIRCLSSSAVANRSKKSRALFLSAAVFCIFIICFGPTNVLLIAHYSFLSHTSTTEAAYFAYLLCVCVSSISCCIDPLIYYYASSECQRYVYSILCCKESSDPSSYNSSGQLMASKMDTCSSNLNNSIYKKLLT

[4] = target: T2, PAR4 (Homo sapiens, UniProt Q96RI0); test: Inhibition of AYPGKF-induced human platelet aggregation; format: cell-based
T2 sequence (Q96RI0 18-385): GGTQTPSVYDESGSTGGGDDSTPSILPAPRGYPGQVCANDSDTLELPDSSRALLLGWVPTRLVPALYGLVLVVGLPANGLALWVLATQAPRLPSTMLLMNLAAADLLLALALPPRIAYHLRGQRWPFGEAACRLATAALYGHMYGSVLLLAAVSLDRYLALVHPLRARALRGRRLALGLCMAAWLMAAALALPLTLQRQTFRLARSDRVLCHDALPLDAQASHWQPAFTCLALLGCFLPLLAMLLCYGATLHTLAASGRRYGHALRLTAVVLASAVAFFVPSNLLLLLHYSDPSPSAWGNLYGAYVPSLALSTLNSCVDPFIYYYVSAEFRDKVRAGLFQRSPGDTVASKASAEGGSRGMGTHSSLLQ

[5] = target: T1, PAR1; test: Inhibition of PAR1-dependent platelet Ca2+ signal; format: cell-based
Procedure: (§1) Platelet Ca2+ measurements were performed as in Example 1.
(§2) The integrated Ca^2+ response for the individual treatments are relative to the full Ca^2+ responses for each agonist (100%) recorded in the absence of P4pal-10 (top trace).

[6] = target: T2, PAR4; test: Inhibition of PAR4-dependent platelet Ca2+ signal (AYPGKF); format: cell-based
Procedure: as §1, §2

[7] = target: T3, S309P PAR1 (Homo sapiens, UniProt P25116, S309P); test: InsP formation in COS7 cells expressing S309P PAR1 mutant; format: cell-based; conditions: relative to wild type PAR1
T3 construct: expressed in transfected cells; host or cells: COS7, transient
T3 sequence (P25116 22-425 S309P): T1 sequence (P25116 22-425) with S288P

[8] = tested on: delta377 PAR1; test: InsP formation in COS7 cells expressing delta377 (C-tail deleted) PAR1 mutant; format: cell-based, human; conditions: relative to wild type PAR1
[9] = target: T4, cholecystokinin B (CCKB) (Homo sapiens, UniProt P32239); test: InsP formation in COS7 cells expressing CCKB; format: cell-based; conditions: relative to 300 nM CCK-8
T4 construct: expressed in transfected cells; host or cells: COS7, transient
T4 sequence (P32239 1-447): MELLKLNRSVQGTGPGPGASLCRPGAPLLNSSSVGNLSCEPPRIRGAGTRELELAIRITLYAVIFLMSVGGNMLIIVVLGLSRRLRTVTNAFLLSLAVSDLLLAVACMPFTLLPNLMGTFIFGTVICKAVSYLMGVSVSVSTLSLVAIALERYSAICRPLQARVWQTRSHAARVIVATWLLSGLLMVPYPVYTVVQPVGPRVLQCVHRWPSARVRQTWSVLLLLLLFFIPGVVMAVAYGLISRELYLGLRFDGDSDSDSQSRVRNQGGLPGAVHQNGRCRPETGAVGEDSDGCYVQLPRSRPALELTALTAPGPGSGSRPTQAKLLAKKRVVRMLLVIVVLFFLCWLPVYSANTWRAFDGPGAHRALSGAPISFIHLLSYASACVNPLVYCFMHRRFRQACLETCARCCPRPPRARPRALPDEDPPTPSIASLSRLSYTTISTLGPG

[10] = target: T5, somatostatin receptor (SSTR2) (Rattus norvegicus, UniProt P30680); test: InsP formation in COS7 cells expressing SSTR2; format: cell-based; conditions: relative to full response to 1 μM AGCKNFFWKTFTSC
T5 construct: expressed in transfected cells; host or cells: COS7, transient
T5 sequence (P30680 whole entry): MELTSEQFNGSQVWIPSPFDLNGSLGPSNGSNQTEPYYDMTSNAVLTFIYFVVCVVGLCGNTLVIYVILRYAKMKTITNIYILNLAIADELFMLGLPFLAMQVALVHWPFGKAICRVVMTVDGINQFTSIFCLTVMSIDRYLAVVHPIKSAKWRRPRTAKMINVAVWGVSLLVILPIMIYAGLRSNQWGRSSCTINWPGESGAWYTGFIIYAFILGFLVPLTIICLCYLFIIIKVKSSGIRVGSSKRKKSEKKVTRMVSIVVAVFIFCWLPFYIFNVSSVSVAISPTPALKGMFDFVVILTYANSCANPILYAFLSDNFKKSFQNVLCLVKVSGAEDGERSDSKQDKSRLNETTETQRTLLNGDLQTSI

[11] = 5 μM pepducin, SFLLRN followed by AYPGKF
[12] = 1.2-5 μM pepducin, AYPGKF first, then SFLLRN

## VPLIISTVCYVSIIRCLSSSAVANRSKKSRALF [Pepducin P1-i3-33]
[1]
  agonist activity, platelet intracellular Ca2+: has similar potency to the P1-i3-40 peptide

## RSLSSSAVANRSKKSRALF [Pepducin P1-i3-19]
[1]
  agonist activity, platelet intracellular Ca2+: causes little stimulation of Ca^2+ fluxes

## CCCCCCCCCCCCCCCC(=O)O [Palmitic acid, reference compound]
[2]
  agonist activity in platelet aggregation: has no effect
[1]
  agonist activity, platelet intracellular Ca2+: has no effect

## CCCCCCCCCCCCCCCC(=O)N[C@@H](CCCNC(=N)N)C(=O)N[C@@H](CS)C(=O)N[C@@H](CC(C)C)C(=O)N[C@@H](CO)C(=O)N[C@@H](CO)C(=O)N[C@@H](CO)C(=O)N[C@@H](C)C(=O)N[C@H](C(=O)N[C@@H](C)C(=O)N[C@@H](CC(N)=O)C(=O)N[C@@H](CCC(N)=O)C(=O)N[C@@H](CO)C(=O)N[C@@H](CCC(N)=O)C(=O)N[C@@H](CCC(N)=O)C(=O)N[C@@H](CO)C(=O)N[C@@H](CCC(N)=O)C(=O)N[C@@H](C)C(=O)N[C@@H](CC(C)C)C(=O)N[C@@H](Cc1ccccc1)C(N)=O)C(C)C [Pepducin P1pal-19Q] (Palmitoyl-RCLSSSAVANQSQQSQALF-NH2)
[3]
  Agonist Efficacy: 46 ± 8%
  loss in efficacy, stimulation of InsP: 2 fold
[2]; relative to P1pal-19
  loss in efficacy, platelet aggregation: 2 fold

## CCCCCCCCCCCCCCCC(=O)N[C@@H](CO)C(=O)NCC(=O)N[C@@H](CCCNC(=N)N)C(=O)N[C@@H](CCCNC(=N)N)C(=O)N[C@@H](Cc1ccc(O)cc1)C(=O)NCC(=O)N[C@@H](Cc1c[nH]cn1)C(=O)N[C@@H](C)C(=O)N[C@@H](CC(C)C)C(=O)N[C@@H](CCCNC(=N)N)C(N)=O [Pepducin P4pal-10] (Palmitoyl-SGRRYGHALR-NH2)
[4]
  IC50: 500 to 1000 nM
[5]; [11]
  inhibition of PAR1 Ca2+ response: 36%
[5]; [12]
  attenuation of PAR1 Ca2+ signal: 17-67%
[6]; [11]
  inhibition of PAR4 Ca2+ response: 97%
[6]; [12]
  attenuation of PAR4 Ca2+ response: 50-80%

## FSAVFFFVPL1ISTVCYVSI1RCLSSSAVANRSKKSRALF (FSAVFFFVPLIISTVCYVSIIRCLSSSAVANRSKKSRALF) [Pepducin P1-i3-40]
[1]
  agonist activity, platelet intracellular Ca2+: causes a rapid intracellular Ca^2+ transient
  lag phase of Ca2+i transient: < 5 s

## INLKALAALAKKIL [mastoparan, reference compound]
[3]
  stimulation of InsP production (agonist activity): did not stimulate InsP production

## CCCCCCCCCCCCCCCC(=O)N[C@@H](CCCNC(=N)N)C(=O)N[C@@H](CS)C(=O)N[C@@H](CCC(=O)O)C(=O)N[C@@H](CO)C(=O)N[C@@H](CO)C(=O)N[C@@H](CO)C(=O)N[C@@H](C)C(=O)N[C@@H](CCC(=O)O)C(=O)N[C@@H](C)C(=O)N[C@@H](CC(N)=O)C(=O)N[C@@H](CCCNC(=N)N)C(=O)N[C@@H](CO)C(=O)N[C@@H](CCCCN)C(=O)N[C@@H](CCCCN)C(=O)N[C@@H](CCC(=O)O)C(=O)N[C@@H](CCCNC(=N)N)C(=O)N[C@@H](CCC(=O)O)C(=O)N[C@@H](CC(C)C)C(=O)N[C@@H](Cc1ccccc1)C(N)=O [Pepducin P1pal-19E] (Palmitoyl-RCESSSAEANRSKKERELF-NH2)
[3]
  Agonist Efficacy: 11 ± 1%
  loss of agonist activity: ~90%
[3]; Antagonist IC50
  IC50: > 50000 nM

## SFLLRN
[7]
  loss of efficacy on S309P mutant: 3.3 fold
  loss of potency on S309P mutant: 28 fold
[8]
  shift of potency on delta377 mutant: ~30 fold

## CCCCCCCCCCCCCCCC(=O)N[C@@H](Cc1c[nH]cn1)C(=O)N[C@H](C(=O)N[C@@H](CC(C)C)C(=O)N[C@@H](C)C(=O)N[C@@H](C)C(=O)N[C@@H](CO)C(=O)NCC(=O)N[C@@H](CCCNC(=N)N)C(=O)N[C@@H](CCCNC(=N)N)C(=O)N[C@@H](Cc1ccc(O)cc1)C(=O)NCC(=O)N[C@@H](Cc1c[nH]cn1)C(=O)N[C@@H](C)C(=O)N[C@@H](CC(C)C)C(=O)N[C@@H](CCCNC(=N)N)C(N)=O)[C@@H](C)O [Pepducin P4pal-15] (Palmitoyl-HTLAASGRRYGHALR-NH2)
[4]
  IC50: 600 nM
[4]; AYPGKF
  inhibition of PAR4-dependent platelet aggregation: effective inhibitor of platelet aggregation
[5]; SFLLRN (or thrombin) after peptide pre-treatment
  inhibition of PAR1-dependent Ca2+ response: without affecting SFLLRN
[6]; 3 micromolar pepducin, 200 Micromolar AYPGKF
  inhibition of PAR4-dependent Ca2+ response: fully antagonize PAR4 signaling; also recorded: blocked AYPGKF
[1]
  agonist activity, platelet intracellular Ca2+: had no agonist activity

## CCCCCCCCCCCCCCCC(=O)N[C@@H](CO)C(=O)NCC(=O)N[C@@H](CO)C(=O)N[C@@H](CCCNC(=N)N)C(=O)N1CCC[C@H]1C(=O)N[C@H](C(=O)N[C@@H](CCC(N)=O)C(=O)N[C@@H](C)C(=O)N[C@@H](CCCCN)C(=O)N[C@@H](CC(C)C)C(=O)N[C@@H](CC(C)C)C(=O)N[C@@H](C)C(=O)N[C@@H](CCCCN)C(=O)N[C@@H](CCCCN)C(=O)N[C@@H](CCCNC(=N)N)C(=O)N[C@H](C(=O)N[C@H](C(=O)N[C@@H](CCCNC(=N)N)C(N)=O)C(C)C)C(C)C)[C@@H](C)O [Bpal-18] (Palmitoyl-SGSRPTQAKLLAKKRVVR-NH2)
[9]
  Agonist Efficacy: 12 ± 3%

## CCCCCCCCCCCCCCCC(=O)N[C@@H](CO)C(=O)NCC(=O)N[C@@H](CO)C(=O)N[C@@H](CCCNC(=N)N)C(=O)N1CCC[C@H]1C(=O)N[C@H](C(=O)N[C@@H](CCC(N)=O)C(=O)N[C@@H](C)C(=O)N[C@@H](CCCCN)C(=O)N[C@@H](CC(C)C)C(=O)N[C@@H](CC(C)C)C(=O)N[C@@H](C)C(=O)N[C@@H](CCCCN)C(=O)N[C@@H](CCCCN)C(=O)N[C@@H](CCCNC(=N)N)C(=O)N[C@H](C(=O)N[C@H](C(=O)N[C@@H](Cc1ccccc1)C(N)=O)C(C)C)C(C)C)[C@@H](C)O [Bpal-18F] (Palmitoyl-SGSRPTQAKLLAKKRVVF-NH2)
[9]
  Agonist Efficacy: 13 ± 2%

## CCCCCCCCCCCCCCCC(=O)N[C@@H](CCCCN)C(=O)N[C@H](C(=O)N[C@@H](CCCNC(=N)N)C(=O)N[C@@H](CO)C(=O)N[C@@H](CO)C(=O)NCC(=O)N[C@H](C(=O)N[C@@H](CCCNC(=N)N)C(=O)N[C@H](C(=O)NCC(=O)N[C@@H](CO)C(=O)N[C@@H](CO)C(=O)N[C@@H](CCCCN)C(=O)N[C@@H](CCCNC(=N)N)C(=O)N[C@@H](CCCCN)C(=O)N[C@@H](CCCCN)C(=O)N[C@@H](CO)C(=O)N[C@@H](CCC(=O)O)C(=O)N[C@@H](CCCCN)C(=O)N[C@@H](CCCCN)C(=O)N[C@H](C(=O)N[C@H](C(=O)N[C@@H](Cc1ccccc1)C(N)=O)[C@@H](C)O)C(C)C)C(C)C)[C@@H](C)CC)C(C)C [Pepducin S2pal-23F] (Palmitoyl-KVRSSGIRVGSSKRKKSEKKVTF-NH2)
[10]
  Agonist Efficacy: 15 ± 4%

## VCYVSIIRSLSSSAVANRSKKSRALF [Pepducin P1-i3-26]
[1]
  agonist activity, platelet intracellular Ca2+: gives a minor, unregulated Ca^2+i response

## Y12pal-18: pepducin based on the i3-loop of P2Y12; peptide YVRTRGVGKVPRKKVNVF (SEQ ID NO:33) (also: palmitoyl lipid, position not given here) [Pepducin Y12pal-18]
[2]
  agonist activity in platelet aggregation: no agonist activity
